Results: patent US20240417428A1, “POLYPEPTIDE FOR INHIBITING TRPM8 AND USE THEREOF” (ZHEJIANG UNIVERSITY, priority 2021, published 2024)
pIC50: −log10 of the molar value. “Also recorded” adds a separate entry of the source. Where a SMILES comes first, the peptide text is derived from it.

Tests used:
TRPM4 = biological target: T1, TRPM4 (Mus musculus, UniProt Q7TN37, K1045A); assay: Electrophysiological recording, ligand activation of TRPM4 (TRPM4-K1045A); format: cell-based
T1 construct: expressed in transfected cells; host or cells: HEK293T
Experimental: (§1) HEK293T cells were cultured in Dulbecco's modified Eagle culture medium under a 37° C., 5% CO2 environment, 10% fetal bovine serum, penicillin (100 U/mL), and streptomycin ([…]) was needed to add into the culture medium. Transient transfection was conducted by using Lipo 2000 (Invitrogen) transfection kit and following the instruction manual.
(§2) Electrophysiological experiment recordings were performed on the cells within 24˜48 h of transient transfections. Specifically, single channel electrophysiological recordings were performed within 8 h after transfection.
(§3) Measurement of the cell currents was respectively performed in the whole-cell recording mode, inside-out recording mode or outside-out recording mode with a HEKA EPC10 amplifier. In the whole cell electrophysiological recordings, glass microelectrodes made of borosilicate material were fire-polished to a original electrode resistance of about 3-6 MΩ. Serial resistance was compensated by 60%. The whole cell electrophysiological recordings were performed at ±80 mV. For single channel electrophysiological recordings, glass microelectrodes were fire-polished to a higher resistance of 6-8 MΩ2. Current signal was sampled at 10 kHz and filtered at 2.9 kHz. Membrane potential of the cell membrane would be clamped at +80 mV. All electrophysiological recordings were performed at room temperature (22° C.) (the maximum variation is 1° C.). […]

TRPA1 = biological target: T2, TRPA1 (Homo sapiens, UniProt O75762); assay: Electrophysiological recording of TRPA1; format: cell-based
T2 construct: expressed in transfected cells; host or cells: HEK293T
Experimental: as §1, §2, §3

TRPV2 = biological target: T3, TRPV2 (Homo sapiens, UniProt Q9Y5S1); assay: Electrophysiological recording, ligand activation of TRPV2; format: cell-based; conditions: IC 50 TRPV2
T3 construct: expressed in transfected cells; host or cells: HEK293T
T3 sequence (Q9Y5S1 1-764): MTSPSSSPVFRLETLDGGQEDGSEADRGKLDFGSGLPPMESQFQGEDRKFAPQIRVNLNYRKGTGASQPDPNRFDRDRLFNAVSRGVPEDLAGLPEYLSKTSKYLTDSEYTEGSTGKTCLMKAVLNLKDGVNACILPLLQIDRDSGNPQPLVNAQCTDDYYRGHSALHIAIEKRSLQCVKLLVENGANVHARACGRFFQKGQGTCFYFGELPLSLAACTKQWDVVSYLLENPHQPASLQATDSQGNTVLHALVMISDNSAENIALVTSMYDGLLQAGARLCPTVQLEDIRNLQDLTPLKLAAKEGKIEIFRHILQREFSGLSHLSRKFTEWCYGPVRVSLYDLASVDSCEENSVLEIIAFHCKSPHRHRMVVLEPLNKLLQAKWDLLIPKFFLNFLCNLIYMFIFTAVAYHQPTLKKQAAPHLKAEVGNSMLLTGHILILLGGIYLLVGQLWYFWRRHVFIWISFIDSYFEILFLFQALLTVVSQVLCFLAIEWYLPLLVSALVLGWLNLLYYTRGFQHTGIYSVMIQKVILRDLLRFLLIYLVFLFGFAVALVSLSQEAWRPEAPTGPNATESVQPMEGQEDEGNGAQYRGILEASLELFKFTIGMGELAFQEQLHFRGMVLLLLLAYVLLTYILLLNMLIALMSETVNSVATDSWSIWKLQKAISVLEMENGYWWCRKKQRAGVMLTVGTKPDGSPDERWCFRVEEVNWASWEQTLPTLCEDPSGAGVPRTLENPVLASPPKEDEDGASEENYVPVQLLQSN
Experimental: as §1, §2, §3

[1] = test system: Icilin-induced wet-dog shake behavior; assay: Icilin-induced wet-dog shake test; format: in vivo, mice
Experimental: Adult male CD1 mice (6-8 weeks old) were used as experimental animals for behavioral experiments and primary cultures of DRG neurons. Mice were raised in the condition of 12 h light/12 h dark of light cycle with adequate standard chow and water. All animal protocols were approved by the Institutional Animal Care and Use Committee (IACUC) of Zhejiang University.
At least 6 adult male CD1 mice were prepared for experimental or control groups. The animals were pretreated with Vehicle or DeC-1.2 of gradient dose via intravenous injection (i.v.) at 30 min before icilin (intraperitoneal injection, i.p., 2.5 μg/g body weight) treatment. Wet dog shake behavior was recorded and counted for 30 min following icilin administration.

T2 sequence (O75762 whole entry, species assumed): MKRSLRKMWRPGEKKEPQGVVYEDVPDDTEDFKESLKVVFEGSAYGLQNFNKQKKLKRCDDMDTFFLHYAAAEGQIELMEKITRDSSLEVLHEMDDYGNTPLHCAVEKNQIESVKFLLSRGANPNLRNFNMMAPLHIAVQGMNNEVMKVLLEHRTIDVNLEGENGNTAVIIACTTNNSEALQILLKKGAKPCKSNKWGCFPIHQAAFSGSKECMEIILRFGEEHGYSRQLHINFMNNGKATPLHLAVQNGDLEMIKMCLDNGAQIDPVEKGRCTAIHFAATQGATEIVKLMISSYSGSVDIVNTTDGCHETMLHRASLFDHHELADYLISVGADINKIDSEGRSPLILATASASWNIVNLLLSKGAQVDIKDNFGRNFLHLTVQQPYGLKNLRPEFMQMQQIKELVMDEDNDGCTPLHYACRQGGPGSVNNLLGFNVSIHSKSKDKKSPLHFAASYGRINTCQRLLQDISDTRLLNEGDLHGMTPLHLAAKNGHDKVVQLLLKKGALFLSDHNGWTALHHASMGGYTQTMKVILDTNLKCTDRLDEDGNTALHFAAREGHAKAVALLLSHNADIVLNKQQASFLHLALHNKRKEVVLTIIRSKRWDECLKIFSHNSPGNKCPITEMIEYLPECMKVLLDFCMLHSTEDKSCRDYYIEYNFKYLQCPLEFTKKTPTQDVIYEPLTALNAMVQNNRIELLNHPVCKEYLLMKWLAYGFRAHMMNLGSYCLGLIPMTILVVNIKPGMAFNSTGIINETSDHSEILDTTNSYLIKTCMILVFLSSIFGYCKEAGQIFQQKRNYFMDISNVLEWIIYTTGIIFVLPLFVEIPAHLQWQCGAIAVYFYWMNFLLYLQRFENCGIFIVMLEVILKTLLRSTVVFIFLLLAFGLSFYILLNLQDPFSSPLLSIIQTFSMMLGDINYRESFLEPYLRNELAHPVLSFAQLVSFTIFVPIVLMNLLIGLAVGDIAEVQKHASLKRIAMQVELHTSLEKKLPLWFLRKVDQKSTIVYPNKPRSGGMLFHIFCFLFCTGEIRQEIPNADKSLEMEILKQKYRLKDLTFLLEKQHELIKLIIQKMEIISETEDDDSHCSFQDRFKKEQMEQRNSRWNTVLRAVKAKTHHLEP
T1 sequence (Q7TN37 whole entry K1045A): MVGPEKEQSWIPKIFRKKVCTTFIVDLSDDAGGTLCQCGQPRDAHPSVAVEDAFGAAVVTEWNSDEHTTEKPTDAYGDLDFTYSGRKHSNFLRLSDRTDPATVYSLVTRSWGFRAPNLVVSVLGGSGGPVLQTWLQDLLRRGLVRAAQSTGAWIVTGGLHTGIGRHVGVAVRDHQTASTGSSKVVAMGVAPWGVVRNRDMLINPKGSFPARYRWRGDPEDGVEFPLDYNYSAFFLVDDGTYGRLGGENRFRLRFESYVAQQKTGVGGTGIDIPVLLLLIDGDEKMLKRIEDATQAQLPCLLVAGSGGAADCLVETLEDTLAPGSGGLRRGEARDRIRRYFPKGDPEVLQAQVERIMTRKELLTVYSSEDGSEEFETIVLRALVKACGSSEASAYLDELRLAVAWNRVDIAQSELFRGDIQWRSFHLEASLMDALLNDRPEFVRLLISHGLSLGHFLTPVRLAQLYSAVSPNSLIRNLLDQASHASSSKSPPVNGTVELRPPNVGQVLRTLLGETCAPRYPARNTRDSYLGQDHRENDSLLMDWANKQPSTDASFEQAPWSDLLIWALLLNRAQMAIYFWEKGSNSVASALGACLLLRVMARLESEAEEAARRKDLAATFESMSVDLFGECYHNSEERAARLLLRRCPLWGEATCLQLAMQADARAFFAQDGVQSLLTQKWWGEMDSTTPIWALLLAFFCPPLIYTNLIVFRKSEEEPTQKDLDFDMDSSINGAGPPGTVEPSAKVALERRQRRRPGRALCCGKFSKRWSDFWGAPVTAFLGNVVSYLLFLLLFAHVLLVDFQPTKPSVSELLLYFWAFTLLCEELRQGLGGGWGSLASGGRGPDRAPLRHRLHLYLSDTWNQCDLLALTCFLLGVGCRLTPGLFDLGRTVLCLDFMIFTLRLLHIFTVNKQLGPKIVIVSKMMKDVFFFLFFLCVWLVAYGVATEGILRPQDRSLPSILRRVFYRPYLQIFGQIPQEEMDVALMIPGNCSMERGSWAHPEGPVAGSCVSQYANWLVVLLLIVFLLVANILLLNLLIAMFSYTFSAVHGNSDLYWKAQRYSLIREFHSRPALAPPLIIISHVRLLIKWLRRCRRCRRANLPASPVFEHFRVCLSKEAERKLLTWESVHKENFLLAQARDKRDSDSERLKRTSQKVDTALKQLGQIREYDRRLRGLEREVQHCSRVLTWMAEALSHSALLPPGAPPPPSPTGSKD

Compound: C[C@@H]1NC(=O)[C@H](CCCNC(=N)N)NC(=O)[C@H](CC(=O)O)NC(=O)[C@H](CCCNC(=N)N)NC(=O)[C@H](CCCNC(=N)N)NC(=O)[C@@H](N)CSSC[C@@H](C(=O)O)NC(=O)[C@H](CCCNC(=N)N)NC(=O)[C@H](CCC(N)=O)NC(=O)[C@H](CCCNC(=N)N)NC(=O)[C@H](Cc2ccc(O)cc2)NC(=O)[C@H](Cc2c[nH]cn2)NC(=O)[C@H](CCCNC(=N)N)NC1=O [DeC-1.2, CRRDRARHYRQRC] (HELM PEPTIDE1{C.R.R.D.R.A.R.H.Y.R.Q.R.C}$PEPTIDE1,PEPTIDE1,1:R3-13:R3$$$V2.0; N-terminus and C-terminus assumed)
- pIC50 (TRPM4): < 5.00
- pIC50 (TRPA1): < 4.00
- inhibition of TRPA1 (TRPA1): none of the TRP channels and Nav channels were inhibited
- pIC50 (TRPV2): < 5.30
- inhibition of WSD behaviors induced by icilin ([1]; 0.3 μg/g body weight i.v., 30 min before icilin): significantly inhibit
- reduction of WDS behavior in icilin treated mice ([1]; 30 μg/g body weight i.v.): largely reduce WDS behavior
- dose dependence of inhibition of icilin-induced wet-dog shakes ([1]; gradient dose i.v.): dose-dependently significantly reduces; also recorded: significantly dose-dependent
